The text below walks through data of patent US20250179047A1, “5-[7-(3,4-DIHYDRO-1H-ISOQUINOLINE-2-CARBONYL)-1,2,3,4 TETRAHYDROISOQUINOLIN-6-YL]-1H-PYRROLE-3-CARBOXAMIDE DERIVATIVES, PHARMACEUTICAL COMPOSITIONS CONTAINING THEM AND THEIR USES AS PRO-APOPTOTIC AGENTS” (LES LABORATOIRES SERVIER, priority 2022, published 2025).

By IC50 is commonly meant the midpoint of a concentration-inhibition curve. Lower therefore signals greater potency.

Assay [1] concerns the target BCLXL WT (Homo sapiens (Human), UniProt Q07817). Description: TR-FRET competitive binding assay, BCLXL WT. Conditions: for Ki: BCLXL WT, Ki determined from IC50, read-out: TR_FRET EKI BclxL; for TR_FRET EKI BCLxL/WT selectivty ratio: ratio Ki BCLxL / Ki BCL2 WT. An outline of the steps: (§1)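 Ki derived from IC50 (11-point dilution, 520/495 nm emission ratio) for displacing a fluorescein-labelled PUMA peptide (2 or 20 nM). Target was 0.5 nM E. coli-expressed Halo-tagged BCL2 (1-207) or BCLXL (2-196), terbium-labelled on Halo. Incubation 2 h at 23°C in pH 7.5 Hepes with 150 mM NaCl and 5% DMSO.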
A general note: In TR-FRET formats the signal depends on donor and acceptor labels being close together.

For assay [2], the target named is BCL2 WT (Homo sapiens (Human), UniProt P10415). Description: TR-FRET competitive binding assay, BCL2 WT. Conditions: Ki determined from IC50, read-out: TR_FRET EKI_Bcl2 WT. Summed up:
as §1

Assay [3] deals with BCL2 F104I (Homo sapiens, UniProt P10415, F104I). As to the kind of experiment: TR-FRET competitive binding assay, BCL2 F104I. Conditions: Ki determined from IC50, read-out: TR_FRET EKI_Bcl2 F104I. Summed up:
as §1

Assay [4] deals with KMS-12-PE Bcl-2 WT. Description: In vitro cytotoxicity CellTiter-Glo 48 h, KMS-12-PE Bcl-2 WT. In kind it is cell-based. Conditions: Homo sapiens, KMS-12-PE, C50 = concentration needed to reach 50% of the cellular viability. Summed up: (§2)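 KMS-12-PE myeloma cells were lentivirally transduced with wild-type or G101V-mutant Bcl-2 and sorted by TagRFP. They were exposed to compounds as 11-point dose responses for 48 h at 37 °C, 5% CO2. Viability was read by CellTiter-Glo ATP luminescence, and C50 was the concentration giving 50% viability.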

In assay [5] the test system is KMS-12-PE Bcl-2 G101V. As to the kind of experiment: In vitro cytotoxicity CellTiter-Glo 48 h, KMS-12-PE Bcl-2 G101V. In kind it is cell-based. Conditions: for Ratio (G101V/WT): C50 KMS-12-PE Bcl-2 G101V over C50 KMS-12-PE Bcl-2 WT; for IC50: Homo sapiens, KMS-12-PE, 48 h, CellTiter-Glo, C50 = concentration needed to reach 50% of the cellular viability. Summed up:
as §2
Background: ATP-based viability assays read luminescence as a measure of living cells.

Assay [6] addresses BCL2 G101V (Homo sapiens, UniProt P10415, G101V). Description: TR-FRET competitive binding assay, BCL2 G101V. Conditions: BCL2 G101V; Ki determined from IC50; read-out: TR_FRET EKI_Bcl2 G101V. An outline of the steps:
as §1

Assay [7] deals with BCL2 G101V. Description: TR-FRET competitive binding assay, BCL2 G101V. Conditions: ratio Ki BCL2 G101V / Ki BCL2 WT. Details: species or system human. Summed up:
as §1

For assay [8], the target named is BCL2 D111A (Homo sapiens, UniProt P10415, D111A). Description: TR-FRET competitive binding assay, BCL2 D111A. Conditions: Ki determined from IC50, read-out: TR_FRET EKI_Bcl2 D111A. An outline of the steps:
as §1

The target in assay [9] is BCL2 D103Y (Homo sapiens, UniProt P10415, D103Y). Description: TR-FRET competitive binding assay, BCL2 D103Y. Conditions: Ki determined from IC50, read-out: TR_FRET EKI_Bcl2 D103Y. Summed up: as §1

Sequence of BCLXL WT (Q07817 other isoform, or with tags, fused parts or gaps): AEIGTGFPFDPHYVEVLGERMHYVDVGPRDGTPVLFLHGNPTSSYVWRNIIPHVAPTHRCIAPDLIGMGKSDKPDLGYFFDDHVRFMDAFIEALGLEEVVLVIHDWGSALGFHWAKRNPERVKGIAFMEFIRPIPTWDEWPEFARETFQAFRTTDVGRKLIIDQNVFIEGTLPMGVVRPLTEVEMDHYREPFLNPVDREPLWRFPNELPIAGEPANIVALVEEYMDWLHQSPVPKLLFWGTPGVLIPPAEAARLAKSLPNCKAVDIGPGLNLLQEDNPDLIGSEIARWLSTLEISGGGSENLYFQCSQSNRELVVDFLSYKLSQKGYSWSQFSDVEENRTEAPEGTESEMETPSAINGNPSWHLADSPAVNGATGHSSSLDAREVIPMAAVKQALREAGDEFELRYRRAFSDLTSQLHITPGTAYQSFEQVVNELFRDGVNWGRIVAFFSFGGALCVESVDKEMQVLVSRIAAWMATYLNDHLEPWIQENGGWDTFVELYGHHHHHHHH

With `Cc1c(N(C(=O)c2cc(-c3cc4c(cc3C(=O)N3Cc5ccccc5C[C@H]3CN3CCCC[C@H]3C)CN(C(=O)Cc3ccc(OCCN5CCOCC5)cc3F)CC4)n(C)c2C)c2ccc(O)cc2)cc(C#N)n1C` [Example 123, N-(5-cyano-1,2-dimethyl-1H-pyrrol-3-yl)-5-[2-(2-{2-fluoro-4-[2-(morpholin-4-yl)ethoxy]phenyl}acetyl)-7-[(3S)-3-{[(2R)-2-methylpiperidin-1-yl]methyl}-1,2,3,4-tetrahydroisoquinoline-2-carbonyl]-1,2,3,4-tetrahydroisoquinolin-6-yl]-N-(4-hydroxyphenyl)-1,2-dimethyl-1H-pyrrole-3-carboxamide], the Ki in assay [1] was found to be 2.6 nM; in assay [2], 0.07 nM; in assay [3], 0.18 nM; in assay [6], 0.3 nM; in [8], 0.13 nM; in [9] it was 0.28 nM. The “TR_FRET EKI BCLxL/WT selectivty ratio” value in assay [1] is 35.1. Further, the figures for the IC50 in assay [4] and in [5] were 0.0038 µM and 0.0185 µM, respectively. The “Ratio (G101V/WT)” value in assay [5] worked out at 4.82. In addition, the “TR_FRET EKI G101V/WT selectivty ratio” value in assay [7] is 4.2.

As to `Cc1c(N(C(=O)c2cc(-c3cc4c(cc3C(=O)N3Cc5ccccc5C[C@H]3CN3CCC[C@@H](C)C3)CN(C(=O)Cc3ccc(OCCN5CCOCC5)cc3F)CC4)n(C)c2C)c2ccc(O)cc2)cc(C#N)n1C` [Example 124, N-(5-cyano-1,2-dimethyl-1H-pyrrol-3-yl)-5-[2-(2-{2-fluoro-4-[2-(morpholin-4-yl)ethoxy]phenyl}acetyl)-7-[(3S)-3-{[(3R)-3-methylpiperidin-1-yl]methyl}-1,2,3,4-tetrahydroisoquinoline-2-carbonyl]-1,2,3,4-tetrahydroisoquinolin-6-yl]-N-(4-hydroxyphenyl)-1,2-dimethyl-1H-pyrrole-3-carboxamide], the Ki turned out to be 5.8 nM in assay [1]; 0.12 nM in assay [2]; 0.34 nM in [3]; 0.7 nM in assay [6]; 0.28 nM in [8]; 0.58 nM in assay [9]. The “TR_FRET EKI BCLxL/WT selectivty ratio” value in [1] was found to be 48.3. In addition, the IC50 in [4] came out at 0.0041 µM; in [5] it was 0.0231 µM. Moreover, the “Ratio (G101V/WT)” value in [5] is recorded as 5.62. For the same compound, in assay [7], the “TR_FRET EKI G101V/WT selectivty ratio” value is reported as 5.8.

Consider `Cc1c(N(C(=O)c2cc(-c3cc4c(cc3C(=O)N3Cc5ccccc5C[C@H]3CN3CCCC[C@@H]3C)CN(C(=O)Cc3ccc(OCCN5CCOCC5)cc3F)CC4)n(C)c2C)c2ccc(O)cc2)cc(C#N)n1C` [Example 125, N-(5-cyano-1,2-dimethyl-1H-pyrrol-3-yl)-5-[2-(2-{2-fluoro-4-[2-(morpholin-4-yl)ethoxy]phenyl}acetyl)-7-[(3S)-3-{[(2S)-2-methylpiperidin-1-yl]methyl}-1,2,3,4-tetrahydroisoquinoline-2-carbonyl]-1,2,3,4-tetrahydroisoquinolin-6-yl]-N-(4-hydroxyphenyl)-1,2-dimethyl-1H-pyrrole-3-carboxamide], for which the Ki in assay [1] was 4.3 nM; in [2] it was 0.07 nM; in assay [3] it was 0.17 nM; in [6] it was 0.4 nM; in assay [8], 0.13 nM; in assay [9], 0.19 nM. Also, the “TR_FRET EKI BCLxL/WT selectivty ratio” value in assay [1] is reported as 61.4. Also, the figures for the IC50 in assay [4] and in assay [5] were 0.0036 µM and 0.0178 µM, respectively. Further, in assay [5], the “Ratio (G101V/WT)” value stood at 4.94. The “TR_FRET EKI G101V/WT selectivty ratio” value in assay [7] is 5.4.

With `Cc1c(N(C(=O)c2cc(-c3cc4c(cc3C(=O)N3Cc5ccccc5C[C@H]3CN3CCC5(CC3)CC5)CN(C(=O)Cc3ccc(OCCN5CCOCC5)cc3F)CC4)n(C)c2C)c2ccc(O)cc2)cc(C#N)n1C` [Example 126, 5-{7-[(3S)-3-({6-azaspiro[2.5]octan-6-yl}methyl)-1,2,3,4-tetrahydroisoquinoline-2-carbonyl]-2-(2-{2-fluoro-4-[2-(morpholin-4-yl)ethoxy]phenyl}acetyl)-1,2,3,4-tetrahydroisoquinolin-6-yl}-N-(5-cyano-1,2-dimethyl-1H-pyrrol-3-yl)-N-(4-hydroxyphenyl)-1,2-dimethyl-1H-pyrrole-3-carboxamide], the Ki stood at 7.7 nM in assay [1]; 0.12 nM in [2]; 0.49 nM in [3]; 0.7 nM in assay [6]; 0.38 nM in assay [8]; 0.37 nM in [9]. In assay [1], the “TR_FRET EKI BCLxL/WT selectivty ratio” value amounted to 64.2. For the same compound, the IC50 in assay [4] is 0.0048 µM; in assay [5], 0.0303 µM. In addition, the “Ratio (G101V/WT)” value in assay [5] came to 6.34. Further, the “TR_FRET EKI G101V/WT selectivty ratio” value in [7] is 5.4.

Take `Cc1c(N(C(=O)c2cc(-c3cc4c(cc3C(=O)N3Cc5ccccc5C[C@H]3CN3CCCCC3)CN(C(=O)Cc3ccc(OCCN(C)CCF)cc3F)CC4)n(C)c2C)c2ccc(O)cc2)cc(C#N)n1C` [Example 134, N-(5-cyano-1,2-dimethyl-1H-pyrrol-3-yl)-5-{2-[2-(2-fluoro-4-{2-[(2-fluoroethyl)(methyl)amino]ethoxy}phenyl)acetyl]-7-[(3S)-3-[(piperidin-1-yl)methyl]-1,2,3,4-tetrahydroisoquinoline-2-carbonyl]-1,2,3,4-tetrahydroisoquinolin-6-yl}-N-(4-hydroxyphenyl)-1,2-dimethyl-1H-pyrrole-3-carboxamide]: the Ki turned out to be 2.6 nM in [1]; 0.06 nM in [2]; 0.33 nM in [3]; 0.3 nM in assay [6]; 0.17 nM in [8]; 0.18 nM in assay [9]. In [1], the “TR_FRET EKI BCLxL/WT selectivty ratio” value stood at 45.6. The IC50 in assay [4] was 0.0058 µM; in [5] it was 0.0265 µM. The “Ratio (G101V/WT)” value in assay [5] is given as 4.6. Moreover, in assay [7], the “TR_FRET EKI G101V/WT selectivty ratio” value is recorded as 5.8.

Take `Cc1c(N(C(=O)c2cc(-c3cc4c(cc3C(=O)N3Cc5ccccc5C[C@H]3CN3CCCCC3)CN(C(=O)Cc3ccc(OCCN5CCOCC5)cc3F)CC4)n3ccccc23)c2ccc(O)cc2)cc(C#N)n1C` [Example 136, N-(5-cyano-1,2-dimethyl-pyrrol-3-yl)-3-[2-[2-[2-fluoro-4-(2-morpholinoethoxy)phenyl]acetyl]-7-[(3S)-3-(1-piperidylmethyl)-3,4-dihydro-1H-isoquinoline-2-carbonyl]-3,4-dihydro-1H-isoquinolin-6-yl]-N-(4-hydroxyphenyl)indolizine-1-carboxamide]: the Ki in assay [1] was determined as 2.3 nM; in assay [2], 0.13 nM; in [3], 0.17 nM; in assay [6], 0.6 nM; in assay [8], 0.35 nM; in assay [9], 0.32 nM. In assay [1], the “TR_FRET EKI BCLxL/WT selectivty ratio” value is 17.7. In addition, the values for the IC50 in assay [4] and in [5] were 0.0037 µM and 0.0118 µM, respectively. The “Ratio (G101V/WT)” value in assay [5] stood at 3.22. Further, in assay [7], the “TR_FRET EKI G101V/WT selectivty ratio” value was 4.2.

Consider `Cc1c(N(C(=O)c2cc(-c3cc4c(cc3C(=O)N3Cc5ccccc5C[C@H]3CN3CC5(CC5)C3)CN(C(=O)Cc3ccc(OCCN5CCOCC5)cc3F)CC4)n(C)c2C)c2ccc(O)cc2)cc(C#N)n1C` [Example 145, 5-{7-[(3S)-3-({5-azaspiro[2.3]hexan-5-yl}methyl)-1,2,3,4-tetrahydroisoquinoline-2-carbonyl]-2-(2-{2-fluoro-4-[2-(morpholin-4-yl)ethoxy]phenyl}acetyl)-1,2,3,4-tetrahydroisoquinolin-6-yl}-N-(5-cyano-1,2-dimethyl-1H-pyrrol-3-yl)-N-(4-hydroxyphenyl)-1,2-dimethyl-1H-pyrrole-3-carboxamide], for which the Ki in assay [1] is 1.1 nM; in [2] it was 0.03 nM; in [3], 0.14 nM; in [6], 0.2 nM; in assay [8] it was 0.07 nM; in [9], 0.11 nM. Besides, in [1], the “TR_FRET EKI BCLxL/WT selectivty ratio” value worked out at 39.3. Moreover, the figures for the IC50 in [4] and in assay [5] were 0.0295 µM and 0.154 µM, respectively. Further, the “Ratio (G101V/WT)” value in assay [5] worked out at 5.2203. The “TR_FRET EKI G101V/WT selectivty ratio” value in [7] is recorded as 5.4.
